Results from ChEMBL document CHEMBL3091419, “Cytidine derivatives as IspF inhibitors of Burkolderia pseudomallei” (Bioorg Med Chem Lett, 2013).
Calls of active or inactive are those of the source. No cut-off for these calls is given here.

How the values were obtained:
Plasmodium falciparum [1] = assay: Antimicrobial activity against Plasmodium falciparum C235 at 40 uM; format: functional, organism-based
[2] = test system: Burkholderia thailandensis; assay: Antimicrobial activity against Burkholderia thailandensis at 1 mM; format: functional
Plasmodium falciparum [3] = assay: Antimicrobial activity against Plasmodium falciparum W2 at 40 uM; format: functional, organism-based
[4] = target: T1, 2-C-methyl-D-erythritol 2,4-cyclodiphosphate synthase (Burkholderia pseudomallei (strain K96243), UniProt Q63T71); assay: Binding affinity to Burkolderia pseudomallei IspF by surface plasmon resonance method
T1 sequence (Q63T71 whole entry): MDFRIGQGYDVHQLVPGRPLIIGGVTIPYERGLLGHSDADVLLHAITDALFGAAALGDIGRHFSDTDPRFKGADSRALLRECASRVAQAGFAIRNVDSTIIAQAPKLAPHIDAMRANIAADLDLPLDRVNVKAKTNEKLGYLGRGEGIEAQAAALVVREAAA

Plasmodium falciparum [5] = assay: Antimicrobial activity against Plasmodium falciparum D6 at 40 uM; format: functional, organism-based

SMILES	Activity (Plasmodium falciparum [1])	Activity [2]	Activity (Plasmodium falciparum [3])	Kd [4] [µM]	Activity (Plasmodium falciparum [5])
Nc1ccn([C@@H]2O[C@H](CNC(=O)c3ccnc4nc[nH]c34)[C@@H](O)[C@H]2O)c(=O)n1	inactive	inactive	inactive	90	inactive
OCc1cn2ccsc2n1				135	
Nc1ccn([C@@H]2O[C@H](CNC(=O)Cc3cn4ccsc4n3)[C@@H](O)[C@H]2O)c(=O)n1	inactive	inactive	inactive	148	inactive
Nc1ccn([C@@H]2O[C@H](CNC(=O)c3cscn3)[C@@H](O)[C@H]2O)c(=O)n1	inactive	inactive	inactive	200	inactive
Nc1ccn([C@@H]2O[C@H](CNC(=O)c3cn4ccsc4n3)[C@@H](O)[C@H]2O)c(=O)n1	inactive	inactive	inactive	70	inactive
Oc1ccc(-n2ccnc2)cc1				> 500	
Nc1ccn([C@@H]2O[C@H](CNC(=O)c3ccncc3)[C@@H](O)[C@H]2O)c(=O)n1	inactive	inactive	inactive	180	inactive
